Data set [1] is described as follows: Particle size of lipid particles (no nucleic acid). It counts as physicochemical. The settings on record: lipid particles without nucleic acid; compound/DSPC/cholesterol/DMG-PEG2000 molar ratio 50/10/38.5/1.5; ELS-Z2. As for the experimental part: The compounds described in Examples 1, 9, and 10,1,2-distearoyl-sn-glycero-3-phosphocholine (trade name: COATSOME® MC-8080; NOF corporation), cholesterol (trade name: Cholesterol HP; NIPPON FINE CHEMICAL CO., LTD.), and 1,2-dimyristoyl-rac-glycero-3-(methylpolyoxyethylene 2000) (hereinafter, called DMG-PEG2000) (trade name: SUNBRIGHT® GM-020; NOF corporation) were dissolved in ethanol at a molar ratio of 50/10/38.5/1.5 such that the total lipid concentration became 20 mmol/L, thereby obtaining an oil phase.
A 10 mmol/L acetate buffer having a pH of 4 was used as a water phase and mixed with the oil phase by a micromixer (see JP5288254B) using a syringe pump such that the volume ratio of water phase:oil phase became 6.7:3.3. The mixed solution was diluted 2× with a phosphate buffered saline (PBS), thereby obtaining a dispersion liquid of lipid particles. The dispersion liquid was dialyzed using a dialysis cassette (Slide-A-Lyzer G2, MWCO: 10 kD, Thermo Fisher Scientific) including PBS such that ethanol was removed, thereby obtaining lipid particles containing the compounds described in Examples 1, 9, and 10.
By using the dispersion liquid of lipid particles as it was, the particle size of the lipid particles was measured using a zeta potential/particle size measurement system ELS-Z2 (Otsuka Electronics Co., Ltd.).

A short description of data set [2]: Particle size of nucleic acid lipid particles (Luc2-siRNA). The format is physicochemical. The settings on record: compound/DSPC/cholesterol/DMG-PEG2000 50/10/38.5/1.5. An outline of the steps:
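Particle size was read by ELS-Z2 light scattering on nucleic acid lipid particles after dialysis against PBS. These were made by micromixing Luc2-siRNA (19.7 μmol/L, pH 4 acetate) with ethanolic lipids (test lipid/DSPC/cholesterol/DMG-PEG2000 50/10/38.5/1.5, 20 mmol/L) at 3:1 water:oil, siRNA/lipid 339 mol/mol.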

Data set [3] can be described thus: Encapsulation rate of siRNA in nucleic acid lipid particles (Luc2-siRNA). The format is physicochemical. The following applies: compound/DSPC/cholesterol/DMG-PEG2000 50/10/38.5/1.5. In a few lines:
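Encapsulation rate was calculated as (total − outer-phase siRNA)/total ×100. Total siRNA was quantified spectrophotometrically after lipid-dissolving ethanol precipitation, and unencapsulated siRNA by RiboGreen in TE (ex 485/em 535 nm). The particles were test lipid/DSPC/cholesterol/DMG-PEG2000 at 50/10/38.5/1.5, formed by microfluidic mixing with Luc2-siRNA at pH 4 and dialyzed against PBS.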

In data set [4] the test system is DMS273 cells constantly expressing Luc. Nature of the data set: Target reporter protein (Luc) knockdown in cell, reporter protein assay. The settings on record: Homo sapiens, DMS-273; Luc2-siRNA lipid particles using the compound; siRNA 0.1 to 100 nmol/L; concentration at which Luc expression is knocked down to 50%; read-out: IC50. It counts as cell-based. In a few lines: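 Nucleic acid lipid particles added at final 0.1 to 100 nmol/L to DMS273 human SCLC cells stably expressing Luc2, 24 hr exposure then 24 hr further culture after medium change. Luc quantified by Steady Glo luminescence after viable cell count; knockdown efficiency calculated and IC50 taken as concentration giving 50% Luc reduction.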

Usually IC50 stands for the concentration needed to halve the response being measured.

Turning to `CCCCC/C=C\C/C=C\CCCCCCCCN(CCCCCCCC/C=C\C/C=C\CCCCC)C(=O)OCCNCCN` [Example 9, 2-((2-aminoethyl)amino)ethyl di((9Z,12Z)-octadeca-9,12-dien-1-yl)carbamate], the “Particle size (nm)” value in data set [1] turned out to be 127.5 nm; in data set [2], 79.5 nm. Further, the “Nucleic acid encapsulation rate” value in data set [3] worked out at 92%. In addition, the 50% inhibitory concentration (IC50) in data set [4] came out at 21 nM.

For the compound `CCCCC/C=C\C/C=C\CCCCCCCCN(CCCCCCCC/C=C\C/C=C\CCCCC)C(=O)OCCN(C)CCN(C)C` [Example 1, 2-((2-(dimethylamino)ethyl)(methyl)amino)ethyl di((9Z,12Z)-octadeca-9,12-dien-1-yl)carbamate], the “Particle size (nm)” value in data set [1] is recorded as 145.9 nm; in data set [2], 66.4 nm. The “Nucleic acid encapsulation rate” value in data set [3] turned out to be 84%. Besides, the IC50 in data set [4] is 13 nM.

`CCCCCCCCCCCCCCCCN(CCCCCCCCCCCCCCCC)C(=O)OCCN(C)CCN(C)C` [Example 10, 2-((2-(Dimethylamino)ethyl)(methyl)amino)ethyl dihexadecylcarbamate]: the “Particle size (nm)” value was determined as 111.2 nm in data set [1] and 159.9 nm in data set [2]. Besides, the “Nucleic acid encapsulation rate” value in data set [3] was determined as 80%.

The values above are taken from patent US12370143B2, “Compound or salt thereof and lipid particles” (FUJIFILM Corporation, priority 2018, dated 2025).
